Results: patent US7566712B2, “Biaryl piperazinyl-pyridine analogues” (Neurogen Corporation, priority 2003, dated 2009)

Biological target: T1, human capsaicin receptor (Homo sapiens, UniProt Q8NER1)
T1 construct: pBK-CMV expression construct encoding the full length human capsaicin receptor; expressed in transfected cells
Assay: Calcium mobilization assay, determination of antagonist activity (Example 6)
Format: cell-based
Conditions: Table II
Outline: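 HEK293 clonal lines stably expressing full-length human capsaicin receptor, loaded with Fluo-3 AM in KRH buffer pH 7.4, 1–2 h at 37 °C. Compounds (1–5 μM final) preincubated 0.5–6 h at room temperature, then capsaicin at its EC50 added. FLIPR/Fluoroskan calcium signal; IC50 as 50% decrease of capsaicin response.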

[1] = determined as described in Example 6 (antagonist activity), "*" = 1 micromolar or less
[2] = determined as described in Example 6 (calcium mobilization, antagonist activity)
[3] = IC50 determined as described in Example 6

T1 sequence (Q8NER1 whole entry): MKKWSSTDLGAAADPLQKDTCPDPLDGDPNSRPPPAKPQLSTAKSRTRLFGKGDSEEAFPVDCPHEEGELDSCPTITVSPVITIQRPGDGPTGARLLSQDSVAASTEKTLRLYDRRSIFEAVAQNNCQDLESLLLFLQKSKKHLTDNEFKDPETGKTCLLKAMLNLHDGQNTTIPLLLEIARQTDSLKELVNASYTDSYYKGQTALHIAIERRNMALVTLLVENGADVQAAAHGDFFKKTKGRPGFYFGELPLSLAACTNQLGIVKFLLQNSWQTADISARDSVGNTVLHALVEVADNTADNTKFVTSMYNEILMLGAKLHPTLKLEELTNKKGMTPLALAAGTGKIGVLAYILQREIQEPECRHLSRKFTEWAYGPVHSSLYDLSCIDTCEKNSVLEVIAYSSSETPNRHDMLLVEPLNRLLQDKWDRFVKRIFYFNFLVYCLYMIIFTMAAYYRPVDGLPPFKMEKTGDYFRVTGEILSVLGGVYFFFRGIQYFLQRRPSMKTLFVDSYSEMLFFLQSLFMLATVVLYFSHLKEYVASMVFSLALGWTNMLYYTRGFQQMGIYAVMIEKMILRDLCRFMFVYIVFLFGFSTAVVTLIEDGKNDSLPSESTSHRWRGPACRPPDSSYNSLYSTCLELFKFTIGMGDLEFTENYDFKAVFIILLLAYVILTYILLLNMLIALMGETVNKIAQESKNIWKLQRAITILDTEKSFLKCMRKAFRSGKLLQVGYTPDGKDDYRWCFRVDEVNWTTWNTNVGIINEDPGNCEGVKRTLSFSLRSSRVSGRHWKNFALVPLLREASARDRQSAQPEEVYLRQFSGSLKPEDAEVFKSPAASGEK

SMILES	IC50 [1]	IC50 [2]	also measured
CCOC(=O)CN(C)c1nc(-c2ccc(F)c(Cl)c2)cc(N2CCN(c3ncccc3C(F)(F)F)CC2)n1 [Example 812, ethyl N-(4-(3-chloro-4-fluorophenyl)-6-{4-[3-(trifluoromethyl)pyridin-2-yl]piperazin-1-yl}pyrimidin-2-yl)-N-methylglycinate]	≤ 1000 nM		
O=C(O)C1CCN(c2nc(-c3ccc(F)c(Cl)c3)cc(N3CCN(c4ncccc4C(F)(F)F)CC3)n2)CC1 [Example 799, 1-(4-(3-chloro-4-fluorophenyl)-6-{4-[3-(trifluoromethyl)pyridin-2-yl]piperazin-1-yl}pyrimidin-2-yl)piperidine-4-carboxylic acid]	≤ 1000 nM		
Fc1ccc(-c2cc(N3CCN(c4ncccc4C(F)(F)F)CC3)nc(N3CCC(N4CCCC4)CC3)n2)cc1Cl [Example 666, 4-(3-chloro-4-fluorophenyl)-2-(4-pyrrolidin-1-ylpiperidin-1-yl)-6-{4-[3-(trifluoromethyl)pyridin-2-yl]piperazin-1-yl}pyrimidine]		≤ 1000 nM	
CC(C)c1ccc(-c2cc(N3CCN(c4ncccc4Cl)C[C@H]3C)nc(N3CCOCC3)n2)cc1 [Example 505, 4-[4-[(2R)-4-(3-chloropyridin-2-yl)-2-methylpiperazin-1-yl]-6-(4-isopropylphenyl)pyrimidin-2-yl]morpholine]			IC50 [3]: ≤ 1000 nM
Nc1nc(-c2ccc(F)c(Cl)c2)cc(N2CCN(c3ncccc3C(F)(F)F)CC2)n1 [Example 584, 4-(3-chloro-4-fluorophenyl)-6-{4-[3-(trifluoromethyl)pyridin-2-yl]piperazin-1-yl}pyrimidin-2-amine]		≤ 1000 nM	
O=C1CN(c2cc(-c3ccc(F)c(Cl)c3)nc(N3CCOCC3)n2)CCN1c1ccccn1 [Example 659, 4-[6-(3-chloro-4-fluorophenyl)-2-morpholin-4-ylpyrimidin-4-yl]-1-pyridin-2-ylpiperazin-2-one]		≤ 1000 nM	
CC(=O)N(C)c1nc(-c2ccc(F)c(Cl)c2)cc(N2CCN(c3ncccc3C(F)(F)F)CC2)n1 [Example 679, N-(4-(3-chloro-4-fluorophenyl)-6-{4-[3-(trifluoromethyl)pyridin-2-yl]piperazin-1-yl}pyrimidin-2-yl)-N-methylacetamide]		≤ 1000 nM	
Fc1ccc(-c2cc(N3CCN(c4ncccc4Cl)CC3)nc(N3CCCCC3)n2)cc1Cl [Example 715, 4-(3-chloro-4-fluorophenyl)-6-[4-(3-chloropyridin-2-yl)piperazin-1-yl]-2-piperidin-1-ylpyrimidine]		≤ 1000 nM	
Cc1cc(-c2cc(N3CCN(c4ncccc4Cl)C[C@@H]3C)nc(Cl)n2)ccc1F [Example 898, 2-chloro-4-[(2S)-4-(3-chloropyridin-2-yl)-2-methylpiperazin-1-yl]-6-(4-fluoro-3-methylphenyl)pyrimidine]	≤ 1000 nM		
C[C@H]1CN(c2nccnc2Cl)CCN1c1cc(-c2ccc(Cl)c(F)c2)nc(Cl)n1 [Example 956, 2-chloro-4-(4-chloro-3-fluorophenyl)-6-[(2S)-4-(3-chloropyrazin-2-yl)-2-methylpiperazin-1-yl]pyrimidine]	≤ 1000 nM		
COc1ccc(-c2cc(N3CCN(c4ncccc4Cl)C[C@H]3C)nc(N3CCOCC3)n2)cc1F [Example 542, 4-[4-[(2R)-4-(3-chloropyridin-2-yl)-2-methylpiperazin-1-yl]-6-(3-fluoro-4-methoxyphenyl)pyrimidin-2-yl]morpholine]			IC50 [3]: ≤ 1000 nM
COc1ccc(Cl)c(N2CCN(c3cc(-c4ccc(F)c(Cl)c4)nc(N4CCCC4C)n3)CC2)n1 (stereo not shown) [Example 918, 4-(3-chloro-4-fluorophenyl)-6-[4-(3-chloro-6-methoxypyridin-2-yl)piperazin-1-yl]-2-(2-methylpyrrolidin-1-yl)pyrimidine]	≤ 1000 nM		
COC[C@H]1CCCN1c1nc(-c2ccc(F)c(Cl)c2)cc(N2CCN(c3ncccc3Cl)C[C@H]2C)n1 [Example 733, 4-(3-chloro-4-fluorophenyl)-6-[(2R)-4-(3-chloropyridin-2-yl)-2-methylpiperazin-1-yl]-2-[(2R)-2-(methoxymethyl)pyrrolidin-1-yl]pyrimidine]		≤ 1000 nM	
Cc1cccnc1N1CCN(c2cc(-c3ccc4ccccc4c3)nc(N3CCOCC3)n2)[C@H](C)C1 [Example 490, 4-[4-[(2R)-2-methyl-4-(3-methylpyridin-2-yl)piperazin-1-yl]-6-(2-naphthyl)pyrimidin-2-yl]morpholine]			IC50 [3]: ≤ 1000 nM
CCOC(=O)C1CCN(c2nc(-c3ccc(F)c(Cl)c3)cc(N3CCN(c4ncccc4C(F)(F)F)CC3)n2)CC1 [Example 797, ethyl 1-(4-(3-chloro-4-fluorophenyl)-6-{4-[3-(trifluoromethyl)pyridin-2-yl]piperazin-1-yl}pyrimidin-2-yl)piperidine-4-carboxylate]	≤ 1000 nM		
CC1CCCN1c1nc(-c2ccc(F)cc2)cc(N2CCN(c3nccnc3Cl)C[C@H]2C)n1 (stereo partly shown) [Example 926, 4-[4-(3-chloropyrazin-2-yl)-2-methylpiperazin-1-yl]-6-(4-fluorophenyl)-2-(2-methylpyrrolidin-1-yl)pyrimidine]	≤ 1000 nM		
CNc1nc(-c2ccc(F)c(Cl)c2)cc(N2CCN(c3ncccc3C(F)(F)F)CC2)n1 [Example 639, 4-(3-chloro-4-fluorophenyl)-N-methyl-6-{4-[3-(trifluoromethyl)pyridin-2-yl]piperazin-1-yl}pyrimidin-2-amine]		≤ 1000 nM	
CC1CCCN1c1nc(-c2ccc(Cl)c(F)c2)cc(N2CCN(c3ncccc3Cl)C[C@H]2C)n1 (stereo partly shown) [Example 834, 4-(4-chloro-3-fluorophenyl)-6-[4-(3-chloropyridin-2-yl)-2-methylpiperazin-1-yl]-2-(2-methylpyrrolidin-1-yl)pyrimidine]	≤ 1000 nM		
Cc1ccc(-c2cc(N3CCN(c4ncccc4C(F)(F)F)C[C@H]3C)nc(N3CCOCC3)n2)cc1F [Example 495, 4-(4-(3-fluoro-4-methylphenyl)-6-{(2R)-2-methyl-4-[3-(trifluoromethyl)pyridin-2-yl]piperazin-1-yl}pyrimidin-2-yl)morpholine]			IC50 [3]: ≤ 1000 nM
O=C1CNCCN1c1nc(-c2ccc(F)c(Cl)c2)cc(N2CCN(c3ncccc3C(F)(F)F)CC2)n1 [Example 884, 1-(4-(3-chloro-4-f1uorophenyl)-6-{4-[3-(trifluoromethyl)pyridin-2-yl]piperazin-1-yl}pyrimidin-2-yl)piperazin-2-one]	≤ 1000 nM		
C[C@@H]1CCCN1c1nc(-c2ccc(Cl)c(F)c2)cc(N2CCN(c3nccnc3Cl)C[C@@H]2C)n1 (relative stereo) [Example 969, rel-4-(4-chloro-3-fluorophenyl)-6-[(2R)-4-(3-chloropyrazin-2-yl)-2-methylpiperazin-1-yl]-2-[(2S)-2-methylpyrrolidin-1-yl]pyrimidine]	≤ 1000 nM		

Now from value to molecule, other results behind:

IC50 [1]	IC50 [2]	SMILES	also measured
≤ 1000 nM		C[C@@H]1CN(c2ncccc2Cl)CCN1c1cc(-c2cncc(Cl)c2)nc(N2CCOCC2)n1 [Example 837, 4-{4-(5-chloropyridin-3-yl)-6-[(2R)-4-(3-chloropyridin-2-yl)-2-methylpiperazin-1-yl]pyrimidin-2-yl}morpholine]	
	≤ 1000 nM	Cc1cc(-c2cc(N3CCN(c4ncccc4Cl)C[C@H]3C)nc(N3CCCC3C)n2)ccc1F (stereo partly drawn) [Example 719, 4-[(2R)-4-(3-chloropyridin-2-yl)-2-methylpiperazin-1-yl]-6-(4-fluoro-3-methylphenyl)-2-(2-methylpyrrolidin-1-yl)pyrimidine]	
	≤ 1000 nM	Cc1cc(-c2cc(N3CCN(c4ncccc4C(F)(F)F)CC3)nc(N3C(C)CCC3C)n2)ccc1F (stereo not shown) [Example 677, 2-(2,5-dimethylpyrrolidin-1-yl)-4-(4-fluoro-3-methylphenyl)-6-{4-[3-(trifluoromethyl)pyridin-2-yl]piperazin-1-yl}pyrimidine]	
≤ 1000 nM		C[C@H]1CN(c2ncccc2Cl)CCN1c1cc(-c2ccc(Cl)c(F)c2)nc(N2CCCC2)n1 [Example 957, 4-(4-chloro-3-fluorophenyl)-6-[(2S)-4-(3-chloropyridin-2-yl)-2-methylpiperazin-1-yl]-2-pyrrolidin-1-ylpyrimidine]	
	≤ 1000 nM	Cc1cccc(-c2cc(N3CCN(c4ncccc4C(F)(F)F)CC3)nc(N3CCCC3C)n2)c1 (stereo not shown) [Example 706, 4-(3-methylphenyl)-2-(2-methylpyrrolidin-1-yl)-6-{4-[3-(trifluoromethyl)pyridin-2-yl]piperazin-1-yl}pyrimidine]	
	≤ 1000 nM	Cc1cc(-c2cc(N3CCN(c4ncccc4C(F)(F)F)CC3)nc(C(C)O)n2)ccc1F (stereo not shown) [Example 686, 1-(4-(4-fluoro-3-methylphenyl)-6-{4-[3-(trifluoromethyl)pyridin-2-yl]piperazin-1-yl}pyrimidin-2-yl)ethanol]	
	≤ 1000 nM	CC1CCCN1c1nc(-c2ccc(F)cc2)cc(N2CCN(c3ncccc3C(F)(F)F)CC2)n1 (stereo not shown) [Example 705, 4-(4-fluorophenyl)-2-(2-methylpyrrolidin-1-yl)-6-{4-[3-(trifluoromethyl)pyridin-2-yl]piperazin-1-yl}pyrimidine]	
≤ 1000 nM		O=C(O)CCc1ccc(-c2cc(N3CCN(c4ncccc4C(F)(F)F)CC3)nc(N3CCOCC3)n2)cc1 [Example 849, 3-[4-(2-morpholin-4-yl-6-{4-[3-(trifluorormethyl)pyridin-2-yl]piperazin-1-yl}pyrimidin-4-yl)phenyl]propanoic acid]	
	≤ 1000 nM	FC(F)(F)c1cccnc1N1CCN(c2cc(-c3cncc(Cl)c3)nc(N3CCOCC3)n2)CC1 [Example 593, 4-(4-(5-chloropyridin-3-yl)-6-{4-[3-(trifluoromethyl)pyridin-2-yl]piperazin-1-yl}pyrimidin-2-yl)morphotine]	
	≤ 1000 nM	Cc1cc(-c2cc(N3CCN(c4ncccc4C(F)(F)F)CC3)nc(N3CCCCC3)n2)ccc1F [Example 675, 4-(4-fluoro-3-methylphenyl)-2-piperidin-1-yl-6-{4-[3-(trifluoromethyl)pyridin-2-yl]piperazin-1-yl}pyrimidine]	
